Target: T1, recombinant human baculovirus-expressed GST-tagged FASN (Homo sapiens, UniProt P49327)
T1 construct: GST; host or cells: baculovirus expression system (insect cells implied)
Experiment: FASN enzyme activity assay: fluorescence-based detection of CoA with CPM
Assay type: biochemical
Conditions: 5 nM FASN, 150 μM NADPH, 10 μM acetyl-CoA, 25 μM malonyl-CoA, 90 minutes incubation
Source text: FASN Enzyme activity may be determined by detecting coenzyme A (CoA), a product of FASN-catalyzed synthesis of palmitate from acetyl-CoA and malonyl-CoA with NADPH as a cofactor. The assay is fluorescence-based and measures the interaction of free CoA with 7-diethylamino-3-(4′-malemimidylphenyl)-4-methylcoumarin (CPM; Life Technologies, CA) as described in Chung et al (2008). The coumarin derivative CPM contains a thiol-reactive maleimide that becomes fluorescent upon interaction with the sulfhydryl group of CoA.
For the example compounds described herein, the reaction was performed in 384-well low volume non-binding platews (Corning, NY) using recombinant human baculovirus-expressed GST-tagged FASN. The 20-μL assay mixture contained 50 mM HEPES (pH 7.5), 5 nM FASN, 150 μM NADPH (Sigma, St. Louis, MO), 10 μM acetyl-CoA (Sigma), 25 μM malonyl-CoA (Sigma) and test compound [diluted in dimethyl sulfoxide (DMSO); 0.5% DMSO final in assay after 100 nL addition]. See, Chung et al.; “A fluorescence-based thiol quantification assay for ultra-high-throughput screening for inhibitors of coenzyme A production,” Assay Drug Dev Tech 2008; 6:361-374.
The reaction was initiated by adding malonyl-CoA, followed by incubation for 90 minutes at […]. A stock solution of the CPM reagent was prepared in DMSO al 66 μM and stored at […]. To detect CoA produced in the FASN reaction, the CPM stock was diluted to 50 μM in 70% ethanol and added at 4 μL/well to the assay place. The reaction mixture was then incubated for 30 minutes. Fluorescence was measured using the EnVision™ 2102 multi-label plate reader (PerkinElmer, Waltham, MA) utilizing a general dual mirror, a 390 nm excitation filter and a 530 nm emission filter. Data analysis was performed using ActivityBase (IDBS, Guilford, UK). IC50 values were calculated by plotting the percent inhibition versus log 10 of the concentration of the compound, and fitting to the nonlinear regression sigmoidal dose-response (variable slope) equation in XLFit (IDBS).

T1 sequence (P49327 whole entry): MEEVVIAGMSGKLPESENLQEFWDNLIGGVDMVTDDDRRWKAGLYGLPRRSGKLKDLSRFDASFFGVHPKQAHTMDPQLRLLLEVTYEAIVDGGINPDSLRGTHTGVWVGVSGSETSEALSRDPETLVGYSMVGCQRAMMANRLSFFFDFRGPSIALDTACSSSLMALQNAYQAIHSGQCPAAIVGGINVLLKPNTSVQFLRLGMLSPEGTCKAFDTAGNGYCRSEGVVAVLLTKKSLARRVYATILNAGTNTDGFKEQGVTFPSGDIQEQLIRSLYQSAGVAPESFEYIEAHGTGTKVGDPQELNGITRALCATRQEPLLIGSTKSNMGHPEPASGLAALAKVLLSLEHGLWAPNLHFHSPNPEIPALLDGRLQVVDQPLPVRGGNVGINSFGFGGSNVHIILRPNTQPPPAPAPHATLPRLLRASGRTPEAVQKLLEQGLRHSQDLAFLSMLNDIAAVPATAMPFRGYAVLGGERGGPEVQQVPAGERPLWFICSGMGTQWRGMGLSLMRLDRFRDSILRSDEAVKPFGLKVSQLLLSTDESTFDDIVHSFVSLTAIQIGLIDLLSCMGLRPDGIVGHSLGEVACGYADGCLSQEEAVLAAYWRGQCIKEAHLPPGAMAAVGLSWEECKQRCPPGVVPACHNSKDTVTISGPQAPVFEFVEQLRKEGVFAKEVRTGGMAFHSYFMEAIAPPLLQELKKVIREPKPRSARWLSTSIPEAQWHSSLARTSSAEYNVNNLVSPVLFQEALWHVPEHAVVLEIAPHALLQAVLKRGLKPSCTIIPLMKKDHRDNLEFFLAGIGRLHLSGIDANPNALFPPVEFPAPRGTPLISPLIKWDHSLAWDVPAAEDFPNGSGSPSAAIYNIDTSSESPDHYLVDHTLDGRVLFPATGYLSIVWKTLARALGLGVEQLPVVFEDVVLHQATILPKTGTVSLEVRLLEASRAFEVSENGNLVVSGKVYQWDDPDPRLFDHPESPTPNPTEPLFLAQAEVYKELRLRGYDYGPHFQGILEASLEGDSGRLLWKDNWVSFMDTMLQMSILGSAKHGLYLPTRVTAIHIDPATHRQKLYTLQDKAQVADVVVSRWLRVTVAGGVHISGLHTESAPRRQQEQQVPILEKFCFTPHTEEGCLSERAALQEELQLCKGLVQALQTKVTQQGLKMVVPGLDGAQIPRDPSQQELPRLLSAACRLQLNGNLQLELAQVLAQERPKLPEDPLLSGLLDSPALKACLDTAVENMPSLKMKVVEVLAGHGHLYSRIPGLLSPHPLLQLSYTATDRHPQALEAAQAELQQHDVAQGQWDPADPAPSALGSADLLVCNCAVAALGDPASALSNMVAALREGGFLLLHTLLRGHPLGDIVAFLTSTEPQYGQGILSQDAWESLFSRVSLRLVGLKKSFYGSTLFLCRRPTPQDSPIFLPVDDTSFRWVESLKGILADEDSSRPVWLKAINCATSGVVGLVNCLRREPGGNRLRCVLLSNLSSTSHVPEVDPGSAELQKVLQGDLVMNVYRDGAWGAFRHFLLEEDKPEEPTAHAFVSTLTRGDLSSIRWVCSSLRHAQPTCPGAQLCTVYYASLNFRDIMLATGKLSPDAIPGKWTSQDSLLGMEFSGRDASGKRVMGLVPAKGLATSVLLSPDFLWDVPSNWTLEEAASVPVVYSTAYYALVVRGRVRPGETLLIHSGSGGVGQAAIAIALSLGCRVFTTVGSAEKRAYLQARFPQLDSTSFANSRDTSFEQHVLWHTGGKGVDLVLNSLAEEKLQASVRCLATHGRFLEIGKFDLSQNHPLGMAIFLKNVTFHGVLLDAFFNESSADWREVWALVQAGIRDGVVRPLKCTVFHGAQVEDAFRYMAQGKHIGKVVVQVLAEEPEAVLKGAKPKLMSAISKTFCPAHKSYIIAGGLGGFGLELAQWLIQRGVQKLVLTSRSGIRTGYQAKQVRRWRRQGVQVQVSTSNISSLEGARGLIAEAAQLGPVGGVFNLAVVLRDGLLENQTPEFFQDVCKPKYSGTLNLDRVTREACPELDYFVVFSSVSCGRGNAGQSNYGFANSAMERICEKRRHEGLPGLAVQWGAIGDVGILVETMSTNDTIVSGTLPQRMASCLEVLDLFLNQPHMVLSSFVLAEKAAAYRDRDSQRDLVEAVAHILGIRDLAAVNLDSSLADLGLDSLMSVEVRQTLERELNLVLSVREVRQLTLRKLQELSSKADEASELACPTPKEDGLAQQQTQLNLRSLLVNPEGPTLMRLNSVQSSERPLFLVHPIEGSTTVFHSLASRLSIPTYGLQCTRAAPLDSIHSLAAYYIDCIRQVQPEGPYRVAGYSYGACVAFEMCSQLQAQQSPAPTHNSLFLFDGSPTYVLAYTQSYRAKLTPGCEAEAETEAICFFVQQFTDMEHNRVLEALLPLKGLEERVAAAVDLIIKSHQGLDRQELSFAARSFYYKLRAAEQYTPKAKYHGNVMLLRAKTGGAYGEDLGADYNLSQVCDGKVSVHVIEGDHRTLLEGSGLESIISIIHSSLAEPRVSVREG

Row | SMILES | IC50
1 | CCC(=O)N1CCC(C(=NOC)c2ccc(-c3ccc4cccnc4c3)cc2)CC1 (racemic) [Example 50, 1-{4-[[Methoxyimino]-(4-quinolin-7-yl-phenyl)-methyl]-piperidin-1-yl}-propan-1-one] | 1 to 99 nM
2 | CCC(=O)N1CCC(C(C)c2ccc(-c3cnc4ccccc4c3)cc2)CC1 (single isomer, unassigned) [Example 67, 1-{4-[1-(4-Quinolin-3-yl-phenyl)-ethyl]-piperidin-1-yl}-propan-1-one] | 1 to 99 nM
3 | CCC(=O)N1CCC(Cc2ccc(-c3cnc4ccccc4c3)cc2)CC1 [Example 1, 1-[4-(4-Quinolin-3-yl-benzyl)-piperidin-1-yl]-propan-1-one] | 1 to 99 nM
4 | CC(C)C(=O)N1CCC(Cc2ccc(-c3cnc4ccccc4c3)cc2)CC1 [Example 2, 2-Methyl-1-[4-(4-quinolin-3-yl-benzyl)-piperidin-1-yl]-propan-1-one] | 1 to 99 nM
5 | O=C(C1CC1)N1CCC(Cc2ccc(-c3cnc4ccccc4c3)cc2)CC1 [Example 3, Cyclopropyl-[4-(4-quinolin-3-yl-benzyl)-piperidin-1-yl]-methanone] | 1 to 99 nM
6 | O=C([C@H]1CCCO1)N1CCC(Cc2ccc(-c3cnc4ccccc4c3)cc2)CC1 [Example 4] | 1 to 99 nM
7 | O=C([C@@H]1CCCO1)N1CCC(Cc2ccc(-c3cnc4ccccc4c3)cc2)CC1 [Example 5] | 1 to 99 nM
8 | CCC(=O)N1CCC(C(F)c2ccc(-c3cnc4ccccc4c3)cc2)CC1 (stereo not shown) [Example 6, 1-{4-[Fluoro-(4-quinolin-3-yl-phenyl)-methyl]-piperidin-1-yl}-propan-1-one] | 1 to 99 nM
9 | O=C(C1CC1)N1CCC(C(F)c2ccc(-c3cnc4ccccc4c3)cc2)CC1 (stereo not shown) [Example 7, Cyclopropyl-{4-[fluoro-(4-quinolin-3-yl-phenyl)-methyl]-piperidin-1-yl}-methanone] | 1 to 99 nM
10 | O=C([C@H]1CCCO1)N1CCC(C(F)c2ccc(-c3cnc4ccccc4c3)cc2)CC1 (stereo partly drawn) [Example 8, {4-[Fluoro-(4-quinolin-3-yl-phenyl)-methyl]-piperidin-1-yl}-(R)-tetrahydro-furan-2-yl-methanone] | 1 to 99 nM
11 | CCC(=O)N1CCC(C(F)(F)c2ccc(-c3cnc4ccccc4c3C)cc2)CC1 [Example 9, 1-(4-{difluoro-[4-(4-methyl-quinolin-3-yl)-phenyl]-methyl}-piperidin-1-yl)-propan-1-one] | 100 to 999 nM
12 | Cc1c(-c2ccc(C(F)(F)C3CCN(C(=O)C4CC4)CC3)cc2)cnc2ccccc12 [Example 10, Cyclopropyl-(4-{difluoro-[4-(4-methyl-quinolin-3-yl)-phenyl]-methyl}-piperidin-1-yl)-methanone] | 100 to 999 nM
13 | Cc1c(-c2ccc(C(F)(F)C3CCN(C(=O)[C@H]4CCCO4)CC3)cc2)cnc2ccccc12 [Example 11, (4-{Difluoro-[4-(4-methylquinolin-3-yl)-phenyl]-methyl}-piperidin-1-yl)-(R)-tetrahydrofuran-2-yl-methanone] | 1 to 99 nM
14 | CCC(=O)N1CCC(Cc2ccc(-c3cnc4ccccc4c3C)cc2)CC1 [Example 12, 1-{4-[4-(4-Methylquinolin-3-yl)-benzyl]-piperidin-1-yl}-propan-1-one] | 1 to 99 nM
15 | Cc1c(-c2ccc(CC3CCN(C(=O)C4CC4)CC3)cc2)cnc2ccccc12 [Example 13, Cyclopropyl-{4-[4-(4-methylquinolin-3-yl)-benzyl]-piperidin-1-yl}-methanone] | 1 to 99 nM
16 | Cc1c(-c2ccc(CC3CCN(C(=O)C4CC(F)(F)C4)CC3)cc2)cnc2ccccc12 [Example 14, (3,3-Difluorocyclobutyl)-{4-[4-(4-methylquinolin-3-yl)-benzyl]-piperidin-1-yl}-methanone] | 1000 to 10000 nM
17 | Cc1c(-c2ccc(CC3CCN(C(=O)[C@H]4CCCO4)CC3)cc2)cnc2ccccc12 [Example 15, {4-[4-(4-Methylquinolin-3-yl)-benzyl]-piperidin-1-yl}-(R)-tetrahydrofuran-2-yl-methanone] | 1 to 99 nM
18 | CCC(=O)N1CCC(C(F)(F)c2ccc(-c3cnc4ccccc4c3)cc2)CC1 [Example 16, 1-{4-[Difluoro-(4-quinolin-3-yl-phenyl)-methyl]-piperidin-1-yl}-propan-1-one] | 100 to 999 nM
19 | O=C(C1CC1)N1CCC(C(F)(F)c2ccc(-c3cnc4ccccc4c3)cc2)CC1 [Example 17, Cyclopropyl-{4-[difluoro-(4-quinolin-3-yl-phenyl)-methyl]-piperidin-1-yl}-methanone] | 100 to 999 nM
20 | O=C([C@H]1CCCO1)N1CCC(C(F)(F)c2ccc(-c3cnc4ccccc4c3)cc2)CC1 [Example 18, {4-[Difluoro-(4-quinolin-3-yl-phenyl)-methyl]-piperidin-1-yl}-(R)-tetrahydrofuran-2-yl-methanone] | 1 to 99 nM
21 | CCC(=O)N1CCC(Cc2ccc(-c3cnc4ccccc4c3Cl)cc2)CC1 [Example 19, 1-{4-[4-(4-Chloroquinolin-3-yl)-benzyl]-piperidin-1-yl}-propan-1-one] | 1 to 99 nM

The next lines start with the values.

Row | IC50 | SMILES
22 | 1 to 99 nM | COc1c(-c2ccc(C(C)C3CCN(C(=O)[C@H]4CCCO4)CC3)cc2)ccc2cccnc12 (mixture of isomers) [Example 69, (4-{1-[4-(8-Methoxyquinolin-7-yl)-phenyl]-ethyl}-piperidin-1-yl)-(R)-tetrahydrofuran-2-yl-methanone]
23 | 1 to 99 nM | Cc1c(-c2ccc(C(C)C3CCN(C(=O)[C@H]4CCCO4)CC3)cc2)ccc2cccnc12 (mixture of isomers) [Example 70, (4-{1-[4-(8-Methylquinolin-7-yl)-phenyl]-ethyl}-piperidin-1-yl)-(R)-tetrahydrofuran-2-yl-methanone]
24 | 1 to 99 nM | Cc1c(-c2ccc(C(C)C3CCN(C(=O)[C@H]4CCCO4)CC3)cc2)cnc2ccccc12 (mixture of isomers) [Example 71, (4-{1-[4-(4-Methylquinolin-3-yl)-phenyl]-ethyl}-piperidin-1-yl)-(R)-tetrahydrofuran-2-yl-methanone]
25 | 1 to 99 nM | CC(c1ccc(-c2ccc3cccnc3c2Cl)cc1)C1CCN(C(=O)[C@H]2CCCO2)CC1 (mixture of isomers) [Example 74, (4-{1-[4-(8-Chloroquinolin-7-yl)-phenyl]-ethyl}-piperidin-1-yl)-(R)-tetrahydrofuran-2-yl-methanone]
26 | 1 to 99 nM | CC(c1ccc(-c2cnc3ccccc3c2Cl)cc1)C1CCN(C(=O)[C@H]2CCCO2)CC1 (mixture of isomers) [Example 77, (4-{1-[4-(4-Chloroquinolin-3-yl)-phenyl]-ethyl}-piperidin-1-yl)-(R)-tetrahydrofuran-2-yl-methanone]
27 | 1 to 99 nM | COCCOC(c1ccc(-c2ccc3c(C)nccc3c2)cc1)C1CCN(C(=O)[C@H]2CCCO2)CC1 (mixture of isomers) [Example 82, (4-{(2-Methoxyethoxy)-[4-(1-methylisoquinolin-6-yl)-phenyl]-methyl}-piperidin-1-yl)-(R)-tetrahydrofuran-2-yl-methanone]
28 | 100 to 999 nM | CCC(=O)N1CC[C@@H](Cc2ccc(-c3cnc4ccccc4c3)cc2)[C@H](O)C1 (relative stereo) [Example 218, 1-[trans-3-Hydroxy-4-(4-quinolin-3-yl-benzyl)-piperidin-1-yl]-propan-1-one]
29 | 100 to 999 nM | CCC(=O)N1CC[C@@H](Cc2ccc(-c3cnc4ccccc4c3)cc2)[C@H](OC)C1 (relative stereo) [Example 219, 1-[(trans)-3-Methoxy-4-(4-quinolin-3-yl-benzyl)-piperidin-1-yl]-propan-1-one]
30 | 1 to 99 nM | CCC(=O)N1CC[C@@H](Cc2ccc(-c3cnc4ccccc4c3)cc2)[C@@H](F)C1 (relative stereo) [Example 221, 1-[cis-3-Fluoro-4-(4-quinolin-3-yl-benzyl)-piperidin-1-yl]-propan-1-one]
31 | 1 to 99 nM | CCC(=O)N1CCC(C(C)c2ccc(-c3cnc4ccccc4c3)cc2)CC1 (single isomer, unassigned) [Example 68, 1-{4-[1-(4-Quinolin-3-yl-phenyl)-ethyl]-piperidin-1-yl}-propan-1-one]
32 | 1 to 99 nM | O=C(C1CCCO1)N1CC=C(Cc2ccc(-c3ccc4cccnc4c3)cc2)CC1 (stereo in doubt) [Example 188, (R)-(4-(4-(quinolin-7-yl)benzyl)-5,6-dihydropyridin-1(2H)-yl)(tetrahydrofuran-2-yl)methanone]
33 | 1 to 99 nM | O=C(C1CCCO1)N1CCC(F)(Cc2ccc(-c3cnc4ccccc4c3)cc2)CC1 (stereo in doubt) [Example 189, (R)-(4-fluoro-4-(4-(quinolin-3-yl)benzyl)piperidin-1-yl)(tetrahydrofuran-2-yl)methanone]
34 | 1 to 99 nM | O=C(C1CCCO1)N1CC=C(Cc2ccc(-c3cnc4ccccc4c3)cc2)CC1 (stereo in doubt) [Example 190, (R)-(4-(4-(quinolin-3-yl)benzyl)-5,6-dihydropyridin-1(2H)-yl)(tetrahydrofuran-2-yl)methanone]

Source: US11878966B2, “Substituted 4-benzyl and 4-benzoyl piperidine derivates” (89BIO LTD, priority 2015, dated 2024)
